In US20130095059A1, “INHALED NO DONOR KMUPS DERIVATIVE PREVENTING ALLERGIC PULMONARY VASCULAR AND BRONCHIAL INFLAMMATION VIA SUPPRESSED CYTOKINES, INOS AND INFLAMMATORY CELL COUNTS IN ASTHMA MODEL” (priority 2007, published 2013):

System: ROCK
Assay: 5-HT-induced ROCK expression in PASMCs
Format: cell-based, Wistar rats
Conditions: 10 μM
Protocol: PASMCs were stimulated with 5-HT or not, as indicated. Cells were treated with KMUP-1 for 24 h before 5-HT stimulation. Whole lysates were collected and resolved by SDS-PAGE as previously described. Primary antibodies were anti-β-actin at: 1:10,000 dilution and anti-RhoA, anti-ROCK, antiphospho-ERK1/2, anti-phospho-AKT, anti-ERK1/2, anti-AKT, anti-5HTT, anti-5-HT2B and anti-eNOS at 1:1000. All blots were incubated with antibodies at 4° C. overnight. After being washed, the appropriate secondary antibodies were added at a dilution of 1:1000 for 1 h at room temperature. After extensive washing, blots were developed with a Super Signal enhanced chemiluminescence kit (Biorad, CA, USA) and visualized on Kodak AR film.
The expression of RhoA/ROCK and phosphorylation of ERK1/2 and AKT kinase in PASMCs were assessed by incubating the PASMCs with 5-HT (10 μM) for 15 min (peak time for RhoA/ROCK, ERK1/2 and AKT phosphorylation) and 5-HTT for 10 min (peak time for 5-HTT) after KMUP-1 (1-100 μM) was added to the culture of PASMCs for 24 h.

`C[C@@H](N)[C@H]1CC[C@H](C(=O)Nc2ccncc2)CC1` [Y27632, reference compound] was tested, and the ROCK expression was “inhibited”.
